Measurements published in BindingDB's records for patent US20240115574 (The Johns Hopkins University, 2024).

target: T1, Sphingomyelin phosphodiesterase 3 (Homo sapiens, UniProt Q9NY59); test: Not found
T1 sequence (Q9NY59 whole entry): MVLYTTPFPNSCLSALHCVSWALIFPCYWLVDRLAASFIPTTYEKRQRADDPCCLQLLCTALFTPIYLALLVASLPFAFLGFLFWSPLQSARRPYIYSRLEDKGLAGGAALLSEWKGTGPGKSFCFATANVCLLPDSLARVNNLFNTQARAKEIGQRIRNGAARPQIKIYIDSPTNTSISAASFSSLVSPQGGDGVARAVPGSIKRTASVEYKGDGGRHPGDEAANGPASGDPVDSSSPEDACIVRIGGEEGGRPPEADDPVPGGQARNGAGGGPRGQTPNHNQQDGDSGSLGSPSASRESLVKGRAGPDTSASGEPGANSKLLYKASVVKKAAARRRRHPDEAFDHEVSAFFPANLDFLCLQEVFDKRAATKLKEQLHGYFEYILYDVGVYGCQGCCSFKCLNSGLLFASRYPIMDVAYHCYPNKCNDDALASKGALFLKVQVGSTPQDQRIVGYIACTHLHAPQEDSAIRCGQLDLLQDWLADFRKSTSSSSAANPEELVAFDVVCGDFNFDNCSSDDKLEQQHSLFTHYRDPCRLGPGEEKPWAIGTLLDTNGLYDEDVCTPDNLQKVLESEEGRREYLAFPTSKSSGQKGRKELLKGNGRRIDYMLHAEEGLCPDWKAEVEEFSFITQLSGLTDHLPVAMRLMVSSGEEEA
From the text: Not found

Structure (SMILES) | IC50 [µM]
COc1ccc(-n2cnc3c(N4CC[C@@H](NC(C)=O)C4)ncnc32)cc1OC [US20240115574, Entry 6-PROV] | > 100
COc1ccc(-n2ncc3c(N4CC[C@@H](NC(C)=O)C4)nc(C)nc32)cc1OC [US20240115574, Entry 10-PROV] | > 100
COc1ccc(-n2cnc3c(N4CC[C@@H](NC(C)=O)C4)nc(C)nc32)cc1OC [US20240115574, Entry 2-PROV] | > 100
COc1ccc(-n2c(C)nc3c(N4CC[C@@H](NC(C)=O)C4)ncnc32)cc1OC [US20240115574, Entry 5-PROV] | > 100

Next, values leading:

IC50 [µM] | Structure (SMILES)
> 100 | COc1ccc(-c2nn(C)c3c(N4CC[C@@H](NC(C)=O)C4)nc(C)nc23)cc1OC [US20240115574, Entry 13-PROV]
> 100 | COc1ccc(-c2c3nc(C)nc(N4CC[C@@H](NC(C)=O)C4)c3nn2C)cc1OC [US20240115574, Entry 12-PROV]
> 100 | COc1ccc(-c2c(C)nn3c(N4CC[C@@H](NC(C)=O)C4)cc(C)nc23)cc1OC [US20240115574, Entry 7-PROV]
> 100 | COc1ccc(-c2c(C)nn3c(N4CC[C@@H](NC(C)=O)C4)nc(C)nc23)cc1OC [US20240115574, Entry 36-PROV]
